One compound from article PMC6009861, “Development of terphenyl-2-methyloxazol-5(4H)-one derivatives as selective reversible MAGL inhibitors” (Journal of Enzyme Inhibition and Medicinal Chemistry, 2017) can be followed below.

For assay [1], the target named is T1, MAGL (Homo sapiens, UniProt Q99685).
T1 construct: purchased Cayman Chemical
T1 sequence (Q99685 1-303): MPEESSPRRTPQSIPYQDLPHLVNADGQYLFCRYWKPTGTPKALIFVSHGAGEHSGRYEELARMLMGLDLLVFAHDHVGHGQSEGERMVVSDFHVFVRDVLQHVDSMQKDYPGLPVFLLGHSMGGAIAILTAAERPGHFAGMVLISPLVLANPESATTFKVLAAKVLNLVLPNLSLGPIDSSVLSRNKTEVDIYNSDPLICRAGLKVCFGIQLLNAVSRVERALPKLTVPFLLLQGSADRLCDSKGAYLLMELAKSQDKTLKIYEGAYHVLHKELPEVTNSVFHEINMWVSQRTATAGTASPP
Put plainly: MAGL-inhibition assay (4-NPA substrate, absorbance 405 nm). It is filed as biochemical. The procedure:
Human recombinant MAGL, and 4-nitrophenylacetate substrate (4-NPA) were from Cayman Chemical. The IC50 values for compounds were generated in 96-well microtiter plates. The MAGL reaction was conducted at RT at a final volume of 200 µL in 10 mM Tris buffer, pH 7.2, containing 1 mM EDTA. A total of 150 µL of 4-NPA 133.3 µM (final concentration = 100 µM) was added to 10 µL of DMSO containing the appropriate amount of compound. The reaction was initiated by the addition of 40 µL of MAGL (11 ng/well) in such a way that the assay was linear over 30 min. […] After the reaction had proceeded for 30 min, absorbance values were then measured by using a VictorX3 PerkinElmer instrument at 405 nm. Two reactions were also run: one reaction containing no compounds and the second one containing neither inhibitor nor enzyme. IC50 values were derived from experimental data using the Sigmoidal dose–response fitting of GraphPad Prism software as reported earlier.

Assay [2] deals with T2, human FAAH (Homo sapiens, UniProt O00519).
T2 sequence (O00519 1-579): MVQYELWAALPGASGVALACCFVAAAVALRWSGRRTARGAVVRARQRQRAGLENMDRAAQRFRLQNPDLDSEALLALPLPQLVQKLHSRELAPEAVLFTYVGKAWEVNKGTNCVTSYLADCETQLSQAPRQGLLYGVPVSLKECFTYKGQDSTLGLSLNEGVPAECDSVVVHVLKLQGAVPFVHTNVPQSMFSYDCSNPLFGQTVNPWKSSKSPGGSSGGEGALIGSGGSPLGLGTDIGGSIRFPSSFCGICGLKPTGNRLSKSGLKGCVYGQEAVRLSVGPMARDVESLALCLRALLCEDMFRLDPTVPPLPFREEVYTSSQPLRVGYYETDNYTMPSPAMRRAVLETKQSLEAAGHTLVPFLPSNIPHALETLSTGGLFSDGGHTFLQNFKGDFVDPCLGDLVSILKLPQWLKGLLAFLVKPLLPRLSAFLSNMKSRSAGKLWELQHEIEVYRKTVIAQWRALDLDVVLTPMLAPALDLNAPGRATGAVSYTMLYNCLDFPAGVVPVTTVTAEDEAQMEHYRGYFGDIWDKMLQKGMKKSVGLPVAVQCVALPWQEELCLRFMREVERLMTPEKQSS
Put plainly: FAAH inhibition assay (AMC arachidonoyl amide, fluorescence). Conditions: AMC arachidonoyl amide 10 µM, 30 min, RT. In kind it is biochemical. How it is done:
The IC50 values for compounds were generated in 96-well microtiter plates. The FAAH reaction was conducted at RT at a final volume of 200 µL in 125 mM Tris buffer, pH 9.0, containing 1 mM EDTA. A total of 150 µL of AMC arachidonoyl amide 13.3 µM (final concentration = 10 µM) was added to 10 µL of DMSO containing the appropriate amount of compound. The reaction was initiated by the addition of 40 µL of FAAH (0.9 µg/well) in such a way that the assay was linear over 30 min. After the reaction had proceeded for 30 min, fluorescence values were then measured by using a VictorX3 PerkinElmer instrument at an excitation wavelength of 340 nm and an emission of 460 nm. Two reactions were also run: one reaction containing no compounds and the second one containing neither inhibitor nor enzyme. IC50 values were derived from experimental data using the Sigmoidal dose − response fitting of GraphPad Prism software as reported earlier. To remove possible false-positive results, for each compound concentration, a blank analysis was carried out, and the final fluorescence results were obtained detracting the fluorescence produced by the presence of all the components except FAAH in the same conditions.

Assay [3] deals with T1, MAGL. Kind of assay: MAGL preincubation assay. In kind it is biochemical. Conditions: preincubation 0, 30 and 60 min with hMAGL. How it is done:
The MAGL reaction was conducted at RT at a final volume of 200 µL in 10 mM Tris buffer, pH 7.2, containing 1 mM EDTA. A total of 150 µL of MAGL (11 ng/well) was added to 10 µL of DMSO containing the appropriate amount of compound. After 0, 30, and 60 min of incubation time the reaction was initiated by the addition of 40 µL of 4-NPA 500 µM. The enzyme activity was then measured according to the procedure described above.

The target of assay [4] is T1, MAGL. Kind of assay: MAGL dilution assay. It is filed as biochemical. Conditions: 10 µM incubated 60 min, then 40x dilution (final 0.25 µM). The procedure:
The enzyme (880 ng in 75 µL of Tris buffer, pH 7.2) was incubated during 60 min at RT with 5 µL of compound 20b (concentration of 10 µM in the mixture) dissolved in DMSO. The MAGL-inhibitor mixture was then diluted 40-fold with the buffer. After 15 min of incubation, the reaction was initiated on a 160 µL aliquot by the addition of 40 µL of 4-NPA 500 µM and the enzyme activity was measured according to the procedure described above.

The subject of assay [5] is OVCAR3. Put plainly: Cell viability assay, OVCAR3. In kind it is cell-based. The following applies: OVCAR-3; OVCAR3 human ovarian cancer cells, 96 h. How it is done: (§1) COV318, OVCAR-3 (from ATCC) and hMSC (from AB Cell-Bio) were maintained at 37 °C in a humidified atmosphere containing 5% CO2 accordingly to the supplier. Normal (1.5 × 10^4) and tumor (5 × 10^2) cells were plated in 96-well culture plates. The day after seeding, vehicle or compounds were added at different concentrations to the medium. Compound was added to the cell culture at a concentration ranging from 200 to 0.02 µM. Cell viability was measured after 96 h according to the supplier (Promega, G7571) with a Tecan F200 instrument. IC50 values were calculated from logistical dose–response curves. Averages were obtained from three independent experiments, and error bars are standard deviations (n = 3).

Assay [6] deals with CAOV3. Put plainly: Cell viability assay, CAOV3. In kind it is cell-based. Conditions: Caov-3; CAOV3 human ovarian cancer cells, 96 h.
Assay [7] has as its system noncancerous human mesenchymal stem cells (hMSC). Put plainly: Cell viability assay, hMSC. It is filed as cell-based. The following applies: 96 h. How it is done:
as §1

Molecules are shown by their SMILES.

Regarding `COc1ccc(-c2ccc(-c3ccc(OC)cc3)c(/C=C3\N=C(C)OC3=O)c2)cc1` [Compound 20b, (Z)-4-{[4,4′′-Dimethoxy-(1,1′:4′,1′′-terphenyl)-2′-yl]methylene}-2-methyloxazol-5(4H)-one], the IC50 was 0.348 ± 0.038 µM in assay [1] (human recombinant MAGL, 4-NPA 100 µM, 30 min, RT); 36.1 ± 1.12 µM in assay [2]; 41.6 µM in assay [5]; 23.8 µM in assay [6]; greater than 100 µM in assay [7]. The MAGL/FAAH selectivity in assay [1] (ratio of FAAH IC50 to MAGL IC50 (fold)) amounted to 104. Further, the “Change of MAGL blocking ability (IC50) with preincubation time” value in assay [3] was “did not show any significant increase”. For the same compound, the “Inhibition mechanism in dilution assay” value in assay [4] is “reversible inhibition”.
